Here are results for two compounds from patent US10336720B2, “Cyclic carbonate monomer containing double iodine, biodegradable polymer prepared thereby and use” (SOOCHOW UNIVERSITY, priority 2015, dated 2019).

Structures are written as SMILES. Where a name gives a salt, the structure may show the parent alone.

As usually defined, the half-life is the time needed for the level to fall by half in the phase considered. The low end stands for rapid decline, the high end for slow decline. Usually MTD stands for the largest dose that counted as tolerated. Read a low MTD as poorer tolerability.

Data set [1] is described as follows: Blood circulation of drug-loaded vesicles. Particulars: nude Balb/C, mouse, whole blood, intravenous, 10 mg/kg. How it is done:
The blood samples (approximately 10 μL) were collected at time points of 0, 0.25, 0.5, 1, 2, 4, 8, 12 and 24 h. The exact weight of the blood was determined through weighing by difference method, then 100 μL Triton (concentration: 1%) and 500 μL DMF (which contained 20 mM DTT, 1 M HCl) were added. The sample was subjected to extraction, followed by centrifugation (20,000 rpm, 20 min).

The nature of data set [2]: Maximum tolerated dose (MTD). To be noted: nude Balb/C, mouse, in vivo. The text has this:
Nude Balb/C mice with body weight of about 18-20 g, aged 4-6 weeks were used. […] The standard for MTD was non accidental death in mice or weight less than 15% in mice.

Data set [3] deals with B16 tumor. The data set can be described thus: Antitumor effect and weight change in mice bearing B16 tumor. The data set is classed as in vivo, Nude Balb/C mice. An excerpt:
After 2 weeks, when the size of the tumors was 30-50 mm^3, the experiment began. […] From Day 0 to 18, the body weight of the mice in each group was weighed every two days. The size of the tumor was precisely measured with Vernier scale, where the method for calculating the volume of tumors was: V=(L×W×H)/2, (where L was the length of the tumor, W was the width of the tumor, H was the thickness of the tumor). The survival of the mice was observed continuously till the 45th day.

The subject of data set [4] is tumor site. The experiment in a line: CT imaging of nano-vesicles in mice (Example 20). The data set is classed as in vivo. Particulars: tail vein, circulation after 40 minutes. How it is done: By the changing CT value in FIG. 10 can be seen, after a 4 hour cycle, CT change of cRGD20/CLPs was the highest, followed by CLPs, and lowest in the control group, after 7 hours of circulation, CT value of cRGD20/CLPs is 2 times and 10 times than the other two groups.

Consider `COc1cccc2c1C(=O)c1c(O)c3c(c(O)c1C2=O)C[C@@](O)(C(=O)CO)C[C@@H]3O[C@H]1C[C@H](N)[C@H](O)[C@H](C)O1` [DOX.HCl, doxorubicin hydrochloride], for which the half-life in data set [1] is 7.8 min. The compound further returned an MTD at 10 days in data set [2] of less than 10 mg/kg. Also, the tumor growth entry in data set [3] (DOX.HCl 10 mg/kg at 0, 4, 8, 12 day, 19-day treatment) is reported as “may also inhibit tumor expansion”. The body weight decrease in data set [3] (in 7 days, DOX.HCl 10 mg/kg) was 20%.

Turning to `CC(=O)N(CC(O)CO)c1c(I)c(C(=O)NCC(O)CO)c(I)c(C(=O)NCC(O)CO)c1I` (centres unmarked) [iohexol], in data set [4], the “contrast signal in the bladder” value is “contrast strong signal”.
